The results in this text go back to patent publication US11905268B2, “Anthranilic acid derivatives and their use in the treatment of human cancers” (UNIVERSITY OF CENTRAL FLORIDA RESEARCH FOUNDATION, INC., priority 2018, dated 2024).

In brackets after ≈: the same amount, converted by molar mass. Read-outs that look alike come from different tables or passages of the source.

Data set [1] relates to DFMO treated Chinese hamster ovary (CHO) cells. The experiment in a line: DFMO/spermidine rescue assay in CHO cells (Assay 2). It is filed as cell-based. Conditions: for EC50 / IC50: Cricetulus griseus; for EC50: Table 2.
Data set [2] has as its system CHO cells. The experiment in a line: Ant44 rescue assay in CHO cells (Assay 1). As to conditions: for EC50 / IC50: Cricetulus griseus; for Active in Ant44 assay?: Table 2, in CHO. The format is cell-based, Chinese hamster.
Data set [3] concerns CHO cells. The experiment in a line: Cytotoxicity screen in CHO cells. As to conditions: for IC50 at 48 h: Chinese hamster, CHO K1 cells.
For data set [4], the system named is L3.6pl cells. Nature of the data set: DFMO/Spd rescue assay in L3.6pl cells. The format is cell-based, human. As to conditions: for EC value in DFMO/Spd rescue assay: Table 9, ECx = y: x% effect at y μM. How it is done:
In another example in the DFMO spermidine (Spd) rescue assay an EC38=8 means that the PTI molecule at 8 μM was able to block 38% of the entry of spermidine into DFMO treated L3.6 pl cells after 72 h incubation time at 37° C. Another explanation, is that the PTI was able to disrupt […] of the intracellular trafficking of Spd that leads to cell rescue. […] Since both Ant44 and Spermidine are polyamine-based systems, cells likely use one mode of the polyamine transport (basal or obligate) in each assay.
(§1) The higher EC value denotes the compound is giving a relative % growth of L3.6 pl cells consistent with inhibiting either Ant44 uptake or blocking the uptake of the rescuing dose of spermidine. Alternatively these compounds may disrupting the intracellular trafficking of Ant44 and spermidine so they cannot reach their intended intracellular target.

Data set [5] has as its system L3.6pl cells. The experiment in a line: Ant44 assay in L3.6pl cells. The format is cell-based, human. Conditions: for EC value in Ant44 (3 μM) assay: Table 9, ECx = y: x% effect at y μM; for EC50: Homo sapiens, L3.6pl. As for the experimental part: For example, in the ANT44 assay an EC48=9 means that the PTI molecule at 9 μM was able to block 48% of the Ant44 entry into L3.6 pl human Pancreatic ductal adenocarcinoma cells after 72 h incubation time at 37° C. Another explanation, is that the PTI was able to disrupt […] of the intracellular trafficking of Ant44 that leads to toxicity. Recall a polyamine transport inhibitor can work at any one (or more than one) of the different steps involved in the multi-step polyamine import and intracellular trafficking process. Blocking the entering spermidine from reaching its intended intracellular target is another way in which these compounds may function.
as §1

The subject of data set [6] is L3.6pl cells. Nature of the data set: cells. It is filed as cell-based. As to conditions: for IC50: Homo sapiens, L3.6pl; for L3.6pl MTC: maximum tolerated concentration where cells are >90% viable.
Another data set in a line: Solubility. Conditions: for solubility: PBS. The format is physicochemical.
The nature of data set [7]: Microsomal stability, human. The format is in vitro ADME.
Data set [8] in a line: Microsomal stability, mouse. The format is in vitro ADME.
A short description of data set [9]: Microsomal stability, rat. The format is in vitro ADME.
The next data set is described as follows: Plasma stability, human. It is filed as in vitro ADME.
The next data set in a line: Plasma stability, mouse. The format is in vitro ADME.
A further data set can be described thus: Plasma stability, rat. The format is in vitro ADME.
Where [10] appears, read: CHO, Table 7, read-out: SAR IC50 DFMO assay.
The mark [11] stands for this setting: CHO, Table 2, Active in Ant44 assay?, read-out: Ant44 assay EC50 in CHO.
Setting [12] is: CHO, Table 7, read-out: SAR IC50 Ant44 assay.
[13] abbreviates: Table 4B, CHO cells, read-out: Ant44 IC50.
Where [14] appears, read: relative growth after 72 h, read-out: L3.6pl IC50.
Setting [15] is: summary of Table 6 (human, mouse, rat).
Where [16] appears, read: 72 h, Table 9, read-out: 72 h IC50.
[17] abbreviates: read-out: IC50 values (toxicity profile).

A word on the EC50: it is the concentration giving half of the maximal effect. For `COc1ccccc1C(=O)Nc1ccc(N2CCC(c3ccccc3)CC2)cc1C(=O)O` [SBI-0814418, 2-(2-methoxybenzamido)-5-(4-phenylpiperidin-1-yl)benzoic acid], in data set [1] (CHO cells), the “activity in DFMO assay” value is listed as “modest activity”. For the same compound, the EC50 came to 21 µM in [1] (CHO); 19 µM with CHO cells [2] (setting [11]); 5 µM with L3.6pl cells [4] (Homo sapiens, Table 2, DFMO rescue in L3.6pl). For the same compound, the IC50 in data set [1] (CHO, Table 4B, read-out: DFMO/CHO IC50) worked out at 21 µM; in data set [1] (setting [10]), 21 µM; with CHO cells [2] (setting [12]), 18 µM; in the data set on CHO cells [2] (setting [13]), 19 µM. For the same compound, the “activity in Ant44 assay” value in the data set on CHO cells [2] (CHO cells) is listed as “modest activity”. Besides, the “Active in Ant44 assay?” value in the data set with CHO cells [2] was “Yes”; in the data set with L3.6pl cells [5] (Table 2, in L3.6pl) it was “no”. The “general toxicity” value in the data set on CHO cells [3] (CHO cells) is reported as “without general toxicity”. In the data set with CHO cells [3], the IC50 at 48 h was more than 40 µM. Further, the “CHO MTD” value with CHO cells [3] (hamster) was more than 32 µM. Moreover, the “activity in DFMO assay run in L3.6 pl” value with L3.6pl cells [4] is on record as “micromolar activity”. For the same compound, the “L3.6pl MTD” value was 5 µM with L3.6pl cells [6] (Table 2) and “(5-10) μM” in the data set with L3.6pl cells [6] (Table 4B). The “L3.6pl MTD cell: percentage at 10 μM” value with L3.6pl cells [6] (at 10 μM) was 80%.

Broadly, the solubility is the concentration that dissolves in the medium under given conditions. A high value points to a readily soluble substance. With `COc1ccc(C(=O)Nc2ccc(N3CCN(c4ccccc4OC)CC3)cc2C(=O)O)cc1` [SBI-0800678], the half-maximal effective concentration (EC50) was approximately 25 µM in data set [1] (CHO); approximately 20 µM in the data set with CHO cells [2] (setting [11]); 20 µM with CHO cells [2] (Table 1 HTS top hits, CHO cells, read-out: Ant44 EC50). Besides, the IC50 in data set [1] (Table 1 HTS top hits, CHO cells, read-out: DFMO Assay IC50) is 15 to 25 µM; in the data set on CHO cells [2] (setting [12]), 9 µM; in the data set on CHO cells [2] (setting [13]) it was 9 µM; in the data set on L3.6pl cells [6] (setting [14]) it was 13.3 ± 0.04 µM. For the same compound, the “Active in Ant44 assay?” value in the data set with CHO cells [2] is reported as “Yes”. Moreover, in the data set with CHO cells [3], the IC50 at 48 h was more than 40 µM. The “CHO MTD” value with CHO cells [3] (hamster) is more than 32 µM. For the same compound, the “Tox (Ant44)” value with CHO cells [3] (toxic above the stated concentration, CHO cells, listed with Ant44 assay) is listed as “SBI- 0800678.0001 (20 EC50) Tox >20 μM”. In addition, the “tox (DFMO Assay)” value in the data set with CHO cells [3] (toxic above the stated concentration, CHO cells, listed with DFMO assay) was more than 15 µM. Besides, in the data set on L3.6pl cells [5], the “worked in Assay 1 (Ant44)” value is on record as “worked”. Further, the “L3.6pl MTC” value with L3.6pl cells [6] turned out to be 6 µM. In addition, in the data set “Solubility”, the “solubility in PBS” value was “poorly soluble”. Moreover, the solubility in the data set “Solubility” (aqueous buffer, pH 5.0) was 0.3 µg/mL (≈ 0.65 µM); in “Solubility” (pH 6.2, aqueous buffer), 0.1 µg/mL (≈ 0.217 µM); in the data set “Solubility” (pH 7.4, aqueous buffer), more than 0.1 µg/mL. Moreover, the “Microsomal Stability % remaining at 1 hour” value in data set [7] (Human) was 52.0%; in data set [8] it was 60.4%; in data set [9] it was 58.0%. Further, in data set [7] (setting [15]), the “microsomal stability” value is “good”. The “Plasma Stability % remaining at 3 hours” value in “Plasma stability, human” (Human) was 88.0%; in “Plasma stability, mouse”, 83.1%; in the data set “Plasma stability, rat” it was 55.3%. Further, the “plasma stability” value in “Plasma stability, human” (setting [15]) is reported as “good”.

In the case of `O=C(Nc1ccc(N2CCC(Oc3ccccc3)CC2)cc1C(=O)O)c1ccc(-c2ccc(Cl)cc2)o1`, in the data set on L3.6pl cells [4], the “EC value in DFMO/Spd rescue assay” value is on record as “EC6 = 1 μM”. For the same compound, the “EC value in Ant44 (3 μM) assay” value with L3.6pl cells [5] is listed as “Not working”. Further, in the data set with L3.6pl cells [6] (setting [16]), the IC50 was more than 1 µM. This compound registered an MTD with L3.6pl cells [6] (Table 9) of 1 µM.

On to `COc1ccc(C(=O)Nc2ccc(N3CCN(c4cc(Cl)ccc4C)CC3)cc2C(=O)O)cc1` [drawing 134], for which the “EC value in DFMO/Spd rescue assay” value in the data set on L3.6pl cells [4] was “EC49 = 8 μM”. Moreover, the “EC value in Ant44 (3 μM) assay” value with L3.6pl cells [5] is on record as “EC21 = 8 μM”. Moreover, the IC50 with L3.6pl cells [6] (setting [16]) stood at 16.8 ± 0.1 µM. This compound also displayed an MTD with L3.6pl cells [6] (Table 9) of 8 µM.

With `COc1ccccc1C(=O)Nc1ccc(N2CCC(Oc3ccccc3)CC2)cc1C(=O)O` [SBI-0814420, 2-(2-methoxybenzamido)-5-(4-phenoxypiperidin-1-yl)benzoic acid], the IC50 in data set [1] (setting [10]) is 19 µM; in the data set with CHO cells [2] (setting [12]) it was 32 µM; in the data set on L3.6pl cells [6] (setting [17]), more than 38 µM; in the data set with L3.6pl cells [6] (setting [14]), 38.6 ± 0.06 µM. This compound also displayed an IC50 at 48 h with CHO cells [3] of more than 40 µM. Besides, the “worked in Assay 2 (DFMO)” value with L3.6pl cells [4] was “performed in both assays”. Further, in the data set on L3.6pl cells [5], the “worked in Assay 1 (Ant44)” value is listed as “performed in both assays”. In addition, the “L3.6pl MTC” value with L3.6pl cells [6] was determined as 10 µM.

`O=C(Nc1ccc(N2CCN(c3ccccn3)CC2)cc1C(=O)O)c1ccco1` [SBI-0814419, 2-(furan-2-carboxamido)-5-(4-(pyridin-2-yl)piperazin-1-yl)benzoic acid]: the IC50 was more than 40 µM in data set [1] (setting [10]), more than 40 µM in the data set with CHO cells [2] (setting [12]), more than 38 µM in the data set on L3.6pl cells [6] (setting [17]) and more than 50 µM in the data set with L3.6pl cells [6] (setting [14]). Besides, the “Active in DFMO assay?” value in data set [1] (Table 3, in CHO) is “No in CHO and in L3.6pl”; in the data set on L3.6pl cells [4] (Table 3, in L3.6pl) it was “No in CHO and in L3.6pl”. Besides, the EC50 in the data set with CHO cells [2] (CHO, Table 3, read-out: Ant44 rescue EC50 CHO) was more than 32 µM; in the data set on L3.6pl cells [5] (Table 3, read-out: Ant44 rescue EC50 L3.6pl), 10 µM; in the data set on L3.6pl cells [5] (Table 5B, Ant44 blockade, read-out: L3.6pl EC50), 10 µM. Also, the “Ant44 IC50” value in the data set with CHO cells [2] (Table 5B, CHO cells) is “trace”. Further, the IC50 at 48 h with CHO cells [3] was more than 40 µM. The “MTD CHO” value in the data set on CHO cells [3] (hamster) was more than 32 µM. In addition, the “worked in Assay 2 (DFMO)” value with L3.6pl cells [4] is reported as “performed in both assays”. In addition, in the data set with L3.6pl cells [5], the “worked in Assay 1 (Ant44)” value is “performed in both assays”. In the data set with L3.6pl cells [6] (Table 3), the “MTD L3.6pl” value was more than 20 µM. In the data set on L3.6pl cells [6] (Table 5B), the “L3.6pl MTD” value is “(>10) uM”. Besides, the “L3.6pl MTC” value with L3.6pl cells [6] came to 12 µM.

In the case of `COc1ccc(C(=O)Nc2ccc(N3CCN(c4cc(Cl)ccc4C)CC3)cc2C(=O)O)c(OC)c1` [drawing 135], in the data set with L3.6pl cells [4], the “EC value in DFMO/Spd rescue assay” value is recorded as “EC15 = 20 μM”. Further, in the data set with L3.6pl cells [5], the “EC value in Ant44 (3 μM) assay” value was “inactive”. In addition, in the data set with L3.6pl cells [6] (setting [16]), the IC50 is more than 50 µM. For the same compound, the MTD with L3.6pl cells [6] (Table 9) is more than 20 µM.
